We go through 13 compounds from patent US7476764B2, “Phenylcarboxyamides as beta-secretase inhibitors” (Bristol-Myers Squibb Company, priority 2005, dated 2009).

Where a name gives a salt, the structure may show the parent alone.

One assay deals with T1, BACE1 enzyme (Homo sapiens, UniProt P56817).
T1 construct: The HEK293-9B.A1 cell line, which overexpresses the BACE1 enzyme, was derived from HEK293 cells; endogenous in cells; washed 48,000 x g pellet of the cell homogenate
T1 sequence (P56817 46-501): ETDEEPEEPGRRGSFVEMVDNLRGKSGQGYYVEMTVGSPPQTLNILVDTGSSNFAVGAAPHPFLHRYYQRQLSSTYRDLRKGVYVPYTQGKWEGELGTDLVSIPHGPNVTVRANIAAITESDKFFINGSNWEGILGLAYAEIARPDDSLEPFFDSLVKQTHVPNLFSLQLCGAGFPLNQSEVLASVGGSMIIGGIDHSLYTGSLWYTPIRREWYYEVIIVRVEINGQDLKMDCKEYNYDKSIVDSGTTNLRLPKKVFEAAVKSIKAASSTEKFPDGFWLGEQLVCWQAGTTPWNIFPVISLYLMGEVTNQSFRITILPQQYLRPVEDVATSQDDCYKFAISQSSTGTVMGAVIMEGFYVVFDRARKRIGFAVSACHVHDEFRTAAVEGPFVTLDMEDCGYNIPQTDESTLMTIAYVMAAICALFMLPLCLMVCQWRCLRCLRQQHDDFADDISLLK
Description: Radioligand displacement assay with a radiolabeled BACE inhibitor on HEK293-9B.A1 cell homogenate. The assay is classed as binding.
Details: not given
The procedure:
Radioligand displacement assays with a radiolabeled BACE inhibitor (WO 2004 013098, compound 3, where the methoxy group is substituted for C(^3H)3) were carried out using standard methods (Keen, M. (1999) in Receptor Binding Techniques (Walker, J. M. ed) p. 106 Humana Press, Totowa, N.J.). The HEK293-9B.A1 cell line, which overexpresses the BACE1 enzyme, was derived from HEK293 cells (Simmons, N. L. (1990) A cultured human renal epitheloid cell line responsive to vasoactive intestinal peptide. Exp. Physiol. 75:309-19.) by RAGE™ (Harrington, J. J. et al. (2001) Creation of genome-wide protein expression libraries using random activation of gene expression. Nat. Biotechnol. 19:440-5; U.S. Pat. Nos. 6,410,266 and 6,361,972). T225 flask cultures of HEK293-9B.A1 were grown to 80% confluency in DMEM supplemented with 2 mM L-glutamine, 10 μg/ml penicillin, 10 μg/ml streptomycin, 3 μg/ml puromycin, 100 nM methotrexate, and 10% fetal bovine serum (Invitrogen, Carlsbad, Calif.), harvested, and resuspended at 2×10^8 cells per 10 ml of lysis buffer consisting of 50 mM HEPES pH 7.0 containing a protease inhibitor cocktail of AEBSF 104 μM, aprotinin 80 nM, leupeptin 2 μM, bestatin 4 μM, pepstatin A 1.5 μM, and E-64 1.4 μM (0.1% of protease inhibitor cocktail P8340, Sigma-Aldrich, St. Louis, Mo.) at 4° C. The resuspended cells were homogenized using a Polytron (Brinkman, Westbury, N.Y.) at setting 6 for 10 sec., then centrifuged at 48,000×g for 10 min. The resulting pellet was washed by repeating the resuspension, homogenization and centrifugation steps. The final pellet was resuspended in buffer at 4° C. to yield a total protein concentration of 5 mg/ml, then aliquots were frozen in liquid nitrogen for further storage at −70° C. Immediately before carrying out a binding assay, an aliquot of cell homogenate was thawed and diluted to a concentration of 100 μg/ml in assay buffer consisting of 50 mM HEPES pH 5.0 and 0.1% CHAPSO. Assays were initiated in polypropylene 96-well plates (Costar, Cambridge, Mass.) by the addition of 200 μl of cell homogenate to 50 μl of assay buffer containing 1 nM radioligand (WO 2004 013098, compound 3, where the methoxy group is substituted for C(^3H)3: 80 Ci/mMol) and various concentrations of unlabelled compounds, and incubated for 1.5 hr. at 25° C. Separation of bound from free radioligand was by filtration on GFF glass fiber filters (Innotech Biosystems International, Lansing, Mich.) using an Innotech cell harvester.
For orientation: Displacement assays read how much labelled ligand stays bound in the presence of the test substance.
For `COc1cccc(CNC[C@@H](O)[C@H](Cc2cc(F)cc(F)c2)NC(=O)c2cc(C(=O)N[C@H](C)c3ccccc3)cc(C(C)O)c2)c1` (stereo partly drawn) [Example 45, N^1-((2S,3R)-4-(3-methoxybenzylamino)-1-(3,5-difluorophenyl)-3-hydroxybutan-2-yl)-5-(1-hydroxyethyl)-N^3-((R)-1-phenylethyl)isophthalamide TFA salt], the IC50 was under 100 nM.
The same measure, in the same setting: in the case of `C=CCO/N=C(/C)c1cc(C(=O)N[C@@H](Cc2cc(F)cc(F)c2)[C@H](O)CNCc2cccc(OC)c2)cc(C(=O)N[C@H](C)c2ccccc2)c1` [Example 46, N^1-((2S,3R)-4-(3-methoxybenzylamino)-1-(3,5-difluorophenyl)-3-hydroxybutan-2-yl)-5-((Z)-1-(allyloxyimino)ethyl)-N^3-((R)-1-phenylethyl)isophthalamide TFA salt] it was under 100 nM.

The assay is the same for the next values; noted with them: displacement of 1 nM tritiated radioligand, HEK293-9B.A1 homogenate, pH 5.0, 1.5 hr at 25° C.; read-out: Activity Rating (activity based on IC50 values).
On to `CO/N=C(\C)c1cc(C(=O)N[C@@H](Cc2cc(F)cc(F)c2)[C@H](O)CNCc2cccc(OC)c2)cc(N(c2ccccc2)S(C)(=O)=O)c1` [Example 38, N-((2S,3R)-4-(3-methoxybenzylamino)-1-(3,5-difluorophenyl)-3-hydroxybutan-2-yl)-3-((E)-1-(methoxyimino)ethyl)-5-(N-phenylmethan-10-ylsulfonamido)benzamide], for which the IC50 is under 100 nM.
Same read-out and setting: in the case of `COc1cccc(CNC[C@@H](O)[C@H](Cc2cc(F)cc(F)c2)NC(=O)c2cc(/C(C)=N/OCc3ccccc3)cc(N(c3ccccc3)S(C)(=O)=O)c2)c1` [Example 39, N-((2S,3R)-4-(3-methoxybenzylamino)-1-(3,5-difluorophenyl)-3-hydroxybutan-2-yl)-3-((E)-1-(benzyloxyimino)ethyl)-5-(N-phenylmethan-10-ylsulfonamido)benzamide] it was under 100 nM; in that of `COc1cccc(CNC[C@@H](O)[C@H](Cc2cc(F)cc(F)c2)NC(=O)c2cc(C(C)O)cc(N(c3ccccc3)S(C)(=O)=O)c2)c1` (stereo partly drawn) [Example 40, N-((2S,3R)-4-(3-methoxybenzylamino)-1-(3,5-difluorophenyl)-3-hydroxybutan-2-yl)-3-(1-hydroxyethyl)-5-(N-phenylmethan-10-ylsulfonamido)benzamide], under 100 nM.
Consider `COc1cccc(CNC[C@@H](O)[C@H](Cc2cc(F)cc(F)c2)NC(=O)c2cc(/C(C)=N/OCC(C)C)cc(N(c3ccccc3)S(C)(=O)=O)c2)c1` [Example 41, N-((2S,3R)-4-(3-methoxybenzylamino)-1-(3,5-difluorophenyl)-3-hydroxybutan-2-yl)-3-((E)-1-(isobutoxyimino)ethyl)-5-(N-phenylmethan-10-ylsulfonamido)benzamide], for which the IC50 lay within 100 to 1000 nM.
The same measure, in the same setting: as for `C=CCO/N=C(\C)c1cc(C(=O)N[C@@H](Cc2cc(F)cc(F)c2)[C@H](O)CNCc2cccc(OC)c2)cc(N(c2ccccc2)S(C)(=O)=O)c1` [Example 42, N-((2S,3R)-4-(3-methoxybenzylamino)-1-(3,5-difluorophenyl)-3-hydroxybutan-2-yl)-3-((E)-1-(allyloxyimino)ethyl)-5-(N-phenylmethan-10-ylsulfonamido)benzamide], the figure is under 100 nM.
Same read-out and setting: as for `CCCO/N=C(\C)c1cc(C(=O)N[C@@H](Cc2cc(F)cc(F)c2)[C@H](O)CNCc2cccc(OC)c2)cc(N(c2ccccc2)S(C)(=O)=O)c1` [Example 43, N-((2S,3R)-4-(3-methoxybenzylamino)-1-(3,5-difluorophenyl)-3-hydroxybutan-2-yl)-3-(N-phenylmethan-10-ylsulfonamido)-5-((E)-1-(propoxyimino)ethyl)benzamide], the figure is under 100 nM.
The same measure, in the same setting: in the case of `COc1cccc(CNC[C@@H](O)[C@H](Cc2cc(F)cc(F)c2)NC(=O)c2cc(C(C)=O)cc(C(=O)N[C@H](C)c3ccccc3)c2)c1` [Example 44, N^1-((2S,3R)-4-(3-methoxybenzylamino)-1-(3,5-difluorophenyl)-3-hydroxybutan-2-yl)-5-acetyl-N^3-((R)-1-phenylethyl)isophthalamide TFA salt] it was under 100 nM; in that of `COc1cccc(CNC[C@@H](O)[C@H](Cc2cc(F)cc(F)c2)NC(=O)c2cc(C(C)=O)cc(C(=O)NC(C)c3ccc(F)cc3)c2)c1` (stereo partly drawn) [Example 47, N^1-((2S,3R)-4-(3-methoxybenzylamino)-1-(3,5-difluorophenyl)-3-hydroxybutan-2-yl)-5-acetyl-N^3-(1-(4-fluorophenyl)ethyl)isophthalamide TFA salt], under 100 nM; in that of `COc1cccc(CNC[C@@H](O)[C@H](Cc2cc(F)cc(F)c2)NC(=O)c2cc(C(=O)NC(C)c3ccc(F)cc3)cc(C(C)O)c2)c1` (stereo partly drawn) [Example 48, N^1-((2S,3R)-4-(3-methoxybenzylamino)-1-(3,5-difluorophenyl)-3-hydroxybutan-2-yl)-N^3-(1-(4-fluorophenyl)ethyl)-5-(1-hydroxyethyl)isophthal-amide TFA salt], under 100 nM.
Regarding `C=CCO/N=C(/C)c1cc(C(=O)NC(C)c2ccc(F)cc2)cc(C(=O)N[C@@H](Cc2cc(F)cc(F)c2)[C@H](O)CNCc2cccc(OC)c2)c1` (stereo partly drawn) [Example 49, N^1-((2S,3R)-4-(3-methoxybenzylamino)-1-(3,5-difluorophenyl)-3-hydroxybutan-2-yl)-5-((Z)-1-(allyloxyimino)ethyl)-N^3-(1-(4-fluorophenyl)ethyl)isophthalamide TFA salt], the IC50 was 100 to 1000 nM.
The same measure, in the same setting: as for `CO/N=C(/C)c1cc(C(=O)NC(C)c2ccc(F)cc2)cc(C(=O)N[C@@H](Cc2cc(F)cc(F)c2)[C@H](O)CNCc2cccc(OC)c2)c1` (stereo partly drawn) [Example 50, N^1-((2S,3R)-4-(3-methoxybenzylamino)-1-(3,5-difluorophenyl)-3-hydroxybutan-2-yl)-N^3-(1-(4-fluorophenyl)ethyl)-5-((Z)-1-(methoxyimino)ethyl)isophthalamide TFA salt], the figure is under 100 nM.

What is called IC50 is the concentration needed to halve the response being measured.
